In patent publication US4912036A, “Rapid differentiation of bacteria using cyclic polypeptide antibiotics” (Eastman Kodak Company, priority 1986, dated 1990):

What was measured:
P. aeruginosa [1] = assay: RIND VII reduction solution assay, ΔOD 635 nm; format: cell-based, Pseudomonas aeruginosa; conditions: antibiotic 10^-4 molar
Method: (§1) Bacterial suspensions were prepared by growing the cells in BHT broth to stationary phase overnight at 37° C. P. auruginosa was grown with agitation. About 40 ml of each overnight culture was centrifuged, decanted and washed once with 0.05 molar potassium phosphate buffer or 0.05 molar N-2-hydroxy-ethylpiperazine-N'-2-ethanesulfonic acid (HEPES) buffer, pH 7.8, and resuspended in buffer.
(§2) TERGITOL 7 anionic surfactant was used to differentiate viable bacteria according to the prior art method. Various concentrations of TERGITOL 7 surfactant were mixed with a 10% glucose solution (50 μl), 3-(4,5-dimethyl-2-thiazolyl)-2,5-diphenyl-2N-tetrazolium bromide (MTT) (25 μl at 5 mg/ml methanol) or a RIND VII dispersion (1.5 ml) and phenazine methosulfate ETA (25 μl at 3 mg/ml methanol). The volume of each test solution was brought to 3 ml with potassium phosphate buffer. A cell suspension (100 μl at about 10^8 cells/ml) was then added. The solutions were incubated at 37° C. for 15 and 30 minutes in the presence of either E. coli, a gram(-) bacterium, or S. aureus, a gram(+) bacterium. The amount of dye formed was then determined visually, and graded as follows: "O" indicates no dye formation, +/- indicates faint dye formation, 1+ indicates light dye formation, 2+ indicates moderate dye formation, 3+ indicates strong dye formation, and 4+ indicates very strong dye formation. […]

S. faecalis [2] = assay: RIND VII reduction solution assay, ΔOD 635 nm; format: cell-based, Streptococcus faecalis; conditions: S. faecalis 7 × 10^7 /ml, antibiotic 10^-4 molar
Method: as §1, §2

S. pyogenes = assay: RIND VII reduction solution assay, ΔOD 635 nm; format: cell-based, Streptococcus pyogenes; conditions: cell concentration 1.5 × 10^8 /ml, antibiotic 10^-4 molar
S. faecalis [3] = assay: RIND XXIX reduction solution assay, Δ fluorescence; format: cell-based, Streptococcus faecalis; conditions: S. faecalis (gram +) about 5×10^7 cells/ml, gramicidin S 0.1 mg/ml, 37° C.
Method: as §1
Dispersions containing RIND compounds were prepared by dissolving the RIND compound in N,N-dimethylformamide (DMF) at 16 mg compound per ml of solvent. An aliquot (250 μl) of the resulting solution was added to 500 μl of TRITON X-100 surfactant. This mixture was then added dropwise with stirring to 25 ml of 0.05 molar HEPES buffer. A dispersion of RIND XXIX was prepared similarly except that DMF was acidified with 0.1% sulfuric acid. […]
(§3) The solutions were incubated at 37° C. for 30 minutes, and the change in fluorescence emission (Δ fluorescence) was determined as the difference between the readings taken when the solutions were first mixed and then after 30 minutes incubation. Measurements were made in a commercially available MICROFLUOR Reader (available from Dynatech Laboratories, Alexandria, Virginia, U.S.A.), modified with an excitation filter at 540 nm, an emission filter at 620 nm and a Xenon lamp.

P. aeruginosa [4] = assay: RIND XXIX reduction solution assay, Δ fluorescence; format: cell-based, Pseudomonas aeruginosa; conditions: P. aeruginosa (gram -) about 5×10^7 cells/ml, gramicidin S 0.1 mg/ml, 37° C.
Method: as §1
Dispersions containing RIND compounds were prepared by dissolving the RIND compound in N,N-dimethylformamide (DMF) at 16 mg compound per ml of solvent. An aliquot (250 μl) of the resulting solution was added to 500 μl of TRITON X-100 surfactant. This mixture was then added dropwise with stirring to 25 ml of 0.05 molar HEPES buffer. A dispersion of RIND XXIX was prepared similarly except that DMF was acidified with 0.1% sulfuric acid. Compositions containing water-compatible RIND compounds were prepared as described above except the surfactant was omitted.
Each test solution contained the following: dispersion of RIND XXIX (25 μl) prepared as described above, glucose (400 μl of 10% aqueous solution), tryptose (400 μl of 10% aqueous solution), trimethyl-1,4-benzoquinone ETA (500 μl of 1.5 mg/ml methanol). Aliquots (200 μl) of the mixture were mixed with solutions of the antibiotics (50 μl). The cell suspensions (50 μl) were then added. The final concentration of gramcidin S and tyrocidin were 0.1 mg/ml and 3.3 mg/ml, respectively. The final cell concentration was about 5×10^7 cells/ml. Cell control solutions contained all reagents except antibiotics. Background controls consisted of both buffer and solution controls. […]
as §3, with “lamp. […]” for “lamp.”

S. faecalis [5] = assay: MTT reduction solution assay, ΔOD 540 nm; format: cell-based, Streptococcus faecalis; conditions: S. faecalis (+) 5×10^7, gramicidin S 0.00625 mg/ml, 37° C.
Method: (§4) These examples illustrate the differentiation of bacteria using a tetrazolium salt and phenolic dye as the reducible compounds and two cyclic polypeptide antibiotics according to the present invention. The tetrazolium salt was 3-(4,5-dimethyl-2-thiazolyl) -2,5-diphenyl-2H-tetrazolium bromide (MTT) which forms a colored formazan dye when reduced. The phenolic dye was 2,6-dichloroindophenol (DCIP) which forms a colorless species when reduced.
(§5) Solutions of the reducible compounds were prepared with the following: HEPES buffer (3 ml, 0.05 molar, pH 7.5), TRITON X-100 nonionic surfactant (1% concentration), glucose (50 μl of 10% in water), tryptose (50 μl of a 10% solution in water), MTT (25 μl of 5 mg/ml methanol) or DCIP (25 μl of 3 mg/ml methanol) and phenazine methosultate ETA (25 μl of 3 mg/ml methanol).
(§6) Test solutions were prepared from the following: reducible compound solution from above (200 μl), 50 μl of either gramicidin S solution (6 mg/ml methanol and 9 ml of buffer) or tyrocidin solution (100 mg/ml methanol and 8 ml of buffer) and 50 μl of cell suspension. […] The change in optical density (ΔOD) was determined after 30 minutes at 37° C. at 540 nm for the MTT assay and at 620 nm for the DCIP assay using a commercially available spectrophotometer.

P. aeruginosa [6] = assay: MTT reduction solution assay, ΔOD 540 nm; format: cell-based, Pseudomonas aeruginosa; conditions: P. aeruginosa (-) 5×10^7, gramicidin S 0.00625 mg/ml, 37° C.
Method: as §4, §5, §6

Substance: gramicidin S
- Corrected ΔOD (15 Minutes) (P. aeruginosa [1]; P. aeruginosa 7 × 10^7 /ml): 0.107
- Corrected ΔOD (15 Minutes) (P. aeruginosa [1]; P. aeruginosa, cell concentration 1.5 × 10^8 /ml): > 2.0
- Corrected ΔOD (15 Minutes) (S. faecalis [2]): 0.125
- Corrected ΔOD (15 Minutes) (S. pyogenes): 0.186
- Δ Fluorescence (30 Minutes) (S. faecalis [3]): 0197
- Δ Fluorescence (30 Minutes) (P. aeruginosa [4]): > 4000
- ΔOD, 540 nm after 30 Minutes (S. faecalis [5]): 0.073
- ΔOD, 540 nm after 30 Minutes (P. aeruginosa [6]): 0.955
